Our source for the IC50 and MIC values is ChEMBL document CHEMBL3616435, “Cytotoxic cardenolides from the latex of Calotropis procera” (Bioorg Med Chem Lett, 2015).

Bounds are passed on as bounds.

One assay has as its system HeLa. In words: Cytotoxicity against human HeLa cells by MTT assay. It counts as functional, cell-based. A general note: Tetrazolium assays rely on reduction of a dye to a coloured formazan, in cell work by metabolically active cells.
The subject of a further assay is Escherichia coli. In words: Antimicrobial activity against Escherichia coli after 16 hrs by broth microdilution method. It counts as functional. A general note: Broth dilution looks for growth in wells or tubes with falling amounts of substance.
Another assay deals with Staphylococcus aureus. In words: Antimicrobial activity against methicillin-resistant Staphylococcus aureus after 16 hrs by broth microdilution method. It counts as functional.
The test system of a further assay is A549. In words: Cytotoxicity against human A549 cells by MTT assay. It counts as functional, cell-based.
Another assay relates to Bacillus subtilis. In words: Antimicrobial activity against Bacillus subtilis after 16 hrs by broth microdilution method. It counts as functional.
A further assay has as its system Candida albicans. Briefly: Antimicrobial activity against Candida albicans after 16 hrs by broth microdilution method. Format: functional.

In general, IC50 refers to the point on the concentration scale where inhibition reaches its midpoint. High values mean weaker potency in that assay, low ones greater potency in that assay. One may read the MIC as the lowest concentration found to suppress growth. High values mean a less susceptible organism, low ones a more susceptible organism. Turning to `C[C@@H]1C[C@@H](O)[C@]2(O)O[C@@H]3C[C@@]4(C=O)[C@@H](CC[C@@H]5[C@@H]4CC[C@]4(C)[C@@H](C6=CC(=O)OC6)C[C@@H](O)[C@]54O)C[C@H]3O[C@@H]2C1`, the half-inhibitory concentration (IC50) in the assay on HeLa worked out at 0.128 µM; with A549 it was 0.079 µM. Also, the minimal inhibitory concentration (MIC) in the assay on Escherichia coli, against Staphylococcus aureus, against Bacillus subtilis and with Candida albicans was more than 100 µg/mL each time.

As for `CO[C@@H]1C[C@@H](C)C[C@H]2O[C@@H]3C[C@@H]4CC[C@@H]5[C@H](CC[C@]6(C)[C@@H](C7=CC(=O)OC7)C[C@@H](O)[C@]56O)[C@@]4(C=O)C[C@H]3O[C@@]12O`, the half-inhibitory concentration (IC50) in the assay on HeLa was found to be 0.104 µM; in the assay with A549, 0.065 µM. Moreover, the minimum inhibitory concentration (MIC) against Escherichia coli, against Staphylococcus aureus, in the assay on Bacillus subtilis and with Candida albicans was more than 100 µg/mL in each case.

`C[C@@H]1C[C@@H](O)[C@]2(O)O[C@@H]3C[C@@]4(C)[C@@H](CC[C@@H]5[C@@H]4CC[C@]4(C)[C@@H](C6=CC(=O)OC6)C[C@@H](O)[C@]54O)C[C@H]3O[C@@H]2C1`: the IC50 with HeLa stood at 0.663 µM; in the assay on A549 it was 0.347 µM. Besides, the minimal inhibitory concentration (MIC) in the assay with Escherichia coli, against Staphylococcus aureus, against Bacillus subtilis and against Candida albicans was more than 100 µg/mL each time.

In the case of `C[C@H]1C[C@H]2O[C@@H]3C[C@@H]4CC[C@@H]5[C@H](CC[C@]6(C)[C@@H](C7=CC(=O)OC7)CC[C@]56O)[C@@]4(C=O)C[C@H]3O[C@@]2(O)[C@H](O)[C@@H]1O`, the IC50 with HeLa was 0.087 µM; with A549, 0.058 µM. The MIC against Escherichia coli, against Staphylococcus aureus, against Bacillus subtilis and against Candida albicans was more than 100 µg/mL in each case.

With `C[C@H]1C[C@H]2O[C@@H]3C[C@@H]4CC[C@@H]5[C@H](CC[C@]6(C)[C@@H](C7=CC(=O)OC7)C[C@@H](O)[C@]56O)[C@@]4(C=O)C[C@H]3O[C@@]2(O)[C@@]2(C1)N=CCS2`, the IC50 with HeLa turned out to be 0.318 µM; with A549 it was 0.157 µM. The minimum inhibitory concentration (MIC) in the assay with Escherichia coli, in the assay on Staphylococcus aureus, against Bacillus subtilis and in the assay with Candida albicans was more than 100 µg/mL each time.

Consider `C[C@]12[C@H](O)C[C@H]3[C@@H](CC[C@H]4C[C@H](O)CC[C@@]43CO)[C@@]1(O)CC[C@@H]2C1=CC(=O)OC1`, for which the IC50 with HeLa stood at 1.15 µM; in the assay on A549, 0.604 µM. Moreover, the minimum inhibitory concentration (MIC) with Escherichia coli, against Staphylococcus aureus, against Bacillus subtilis and against Candida albicans was more than 100 µg/mL in each case.

In the case of `C[C@]12[C@H](O)C[C@H]3[C@@H](CC[C@H]4C[C@H](O)CC[C@@]43C=O)[C@@]1(O)CC[C@@H]2C1=CC(=O)OC1`, the concentration for half-maximal inhibition (IC50) worked out at 1.43 µM with HeLa and 1.02 µM in the assay on A549. The MIC with Escherichia coli, in the assay on Staphylococcus aureus, in the assay with Bacillus subtilis and in the assay on Candida albicans was more than 100 µg/mL each time.

For the compound `C[C@]12C[C@@H](O)[C@H](O)C[C@@H]1CC[C@@H]1[C@@H]2CC[C@]2(C)[C@@H](C3=CC(=O)OC3)C[C@@H](O)[C@]12O`, the half-maximal inhibitory concentration (IC50) stood at 2.47 µM in the assay with HeLa and 1.69 µM with A549. In addition, the MIC against Escherichia coli, in the assay with Staphylococcus aureus, with Bacillus subtilis and in the assay on Candida albicans was more than 100 µg/mL each time.

With `C[C@]12[C@H](O)C[C@H]3[C@@H](CC[C@H]4C[C@@H](O)CC[C@@]43CO)[C@@]1(O)CC[C@@H]2C1=CC(=O)OC1`, the half-inhibitory concentration (IC50) came to 0.863 µM in the assay with HeLa and 0.549 µM in the assay with A549. Further, the MIC in the assay with Escherichia coli, against Staphylococcus aureus, against Bacillus subtilis and against Candida albicans was more than 100 µg/mL each time.

As for `C[C@@H]1C[C@@H](O)[C@]2(O)O[C@@H]3C[C@@]4(C=O)[C@@H](CC[C@@H]5[C@@H]4CC[C@]4(C)[C@@H](C6=CC(=O)OC6)CC[C@]54O)C[C@H]3O[C@@H]2O1` [CALACTIN], the MIC in the assay with Escherichia coli, in the assay with Staphylococcus aureus, against Bacillus subtilis and against Candida albicans was more than 100 µg/mL each time.

On to `C[C@@H]1C[C@@]2(N=CCS2)[C@]2(O)O[C@@H]3C[C@@]4(C=O)[C@@H](CC[C@@H]5[C@@H]4CC[C@]4(C)[C@@H](C6=CC(=O)OC6)CC[C@]54O)C[C@H]3O[C@@H]2O1` [USCHARIN], for which the IC50 was determined as 0.275 µM in the assay with HeLa and 0.104 µM with A549. In addition, the MIC in the assay on Escherichia coli, with Staphylococcus aureus, in the assay with Bacillus subtilis and against Candida albicans was more than 100 µg/mL throughout.
